Results reported in patent US10245299B2, “Autoassembling peptides for the treatment of pulmonary bulla” (3-D MATRIX, LTD., priority 2014, dated 2019).

Assays:
[1] = Rheology of peptides mixed with cation/anion solutions; format: physicochemical
Procedure: In a rheological comparison of 2.5% RADA16 and 2.5% RADA16+NaCl, KCl, and CaCl2, solutions of 0.5% RADA16 mixed with 0.005, 0.05, 0.125, 0.25, 0.5, and 1 M NaCl, KCl, and CaCl2 were prepared. The anion, chloride (Cl−), was kept the same to observe the effect of the cations, sodium (Na+), potassium (K+), and calcium (Ca2+). FIG. 21 provides a basic understanding of how varying the cations of a salt solution effects the viscoelastic properties and the stiffness of self-assembling peptides. […] This should be because Ca has […] higher ionic strength than Na and K at the same molar concentrations. Therefore, influence of salts on the peptide solution is more related to their ionic strength rather than their molar concentration, as shown in FIGS. 17-18 and Table 2a-c. In some embodiments, there is a correlation between the properties of the peptide solutions with salts based on the concentration of the salts.
Rheological measurements of stiffness of 2.5% RADA16 and 2.5% RADA16+0.25 M CaCl2 was evaluated.
Rheological measurements of reversibility of 0.5% RADA16 solution with +0.125, 0.25, and 0.5 M CaCl2 were evaluated. Solutions of 0.5% RADA16 mixed with 0.125, 0.25, and 0.5 M CaCl2 were prepared. The structure of the self-assembled peptide solution were disrupted thoroughly by application of mechanical stress through vortexing and sonication. The mixtures were placed at room temperature for 48 hours to allow self-assembly to take place. […] FIG. 23a presents raw rheological data of the peptide solution with salts and the perturbed peptide solution while FIG. 23b provides a comparison of stiffness of the control peptide solution and the perturbed peptide solution.
Rheological measurements of gelation kinetics of 0.5% RADA16+NaCl, KCl, and CaCl2 were evaluated. A solution of 0.5% RADA16 was prepared and gelation kinetics were observed by treatment with several cations (e.g. Na, […], K) and anions (e.g. Cl, CO3, PO4, SO4). It was determined how long it will take for the peptide mixtures to gel and how to control that gelation time by varying the cation/anion type and concentration. […] In vivo and in vitro qualitative experiments and the resulting observations were supportive of these conclusions.
The two gels were: (1) a combination of the self-assembling peptide with a well-known cation/anion solution, Ringer's Solution (pH 5.3), used in the medical field and (2) a combination of the self-assembling peptide with a well-known contrast agent, indigo carmine, which is a dye solution containing sulfate (anion) and sodium (cation) ions. Indigo carmine contains indigoindisulfonate sodium (C16H8N2Na2O8S2), water, and sodium citrate […] for pH adjustment. Using indigo carmine powder, a 1% solution was prepared for use in experimentation. This corresponds to 10 mg/1 ml of water. The concentration of indigo carmine solution used in experimentation was 0.00585% in water.
The rheological comparisons of these mixtures and the visualization of the gels can be observed in FIG. 24a-24c. […] The concentration of the contrast agent or cation/anion mixture and peptide hydrogel that were mixed were based on an understanding of using cations and anions as described herein. […] FIG. 24C presents a comparison of stiffness of RADA16 and RADA16 mixed with Ringer's Solution.

pulmonary bullae = test: Burst pressure of hydrogels as air sealants on collapsed pulmonary bullae of swine lungs
From the text: Swine lungs were obtained from freshly euthanized pigs. An endotracheal tube was inserted through the trachea and primary bronchus into the lung of interest. Pressure was supplied to the lungs with the use of a manual endotracheal intubation pump. The trachea was tied off to prevent air leakage around the tube. The other primary bronchus of the other lung was clamped to direct all airflow to the lung of interest. A manometer was used to measure the pressure of air directed into the lungs to induce expansion.
The self-assembling peptide hydrogels were comprised of Ac-RADARADARADARADA-NH2 (SEQ ID NO: 1) (i.e. RADA16) and Ac-IEIKIEIKIEIKI-NH2 (SEQ ID NO: 2) (i.e. IEIK13) with RADA16 used alone or mixed with calcium chloride. If alone, the peptides were reconstituted in deionized water. If, however the peptides were reconstituted with a salt solution, the peptides were reconstituted first in deionized water, and subsequently, a 2× solution of calcium chloride at a previously decided concentration which was mixed in at a 1:1 ratio.
Pulmonary bullae, as depicted in FIG. 25, are naturally occurring weak areas of the pleura. Prior to application of the hydrogels, the bullae were identified and collapsed using a 16 G needle. […]

[2] = Gelation kinetics of pH adjusted peptides, time sweep with DMEM; format: physicochemical
Procedure: The effect of pH level on the properties of gelation kinetics was evaluated to identify optimized pH levels for the peptides as described herein. Fast gelation kinetics of PuraMatrix® and other peptides within body fluid may generally improve its function and response time for various clinical applications. The pH level may impart response time to begin gelation when treated with simulated body fluid including but not limited to DMEM. […] A fast response time of PuraMatrix® and other peptides within body fluid may generally improve its function and response time for various clinical applications.
Time sweep tests were performed at 1 rad/sec and at 1 Pa with 20 mm plates and 500 μm gap distance. During time sweep test of PuraMatrix® 2.5% solution, DMEM was added into the chamber surrounding the measuring plates to soak PuraMatrix® solution at 0 time point. The results are shown in FIG. 9A for PuraMatrix® 2.5% solution.
Time sweep tests were performed at 1 rad/sec and at 1 Pa with 20 mm plates and 500 μm gap distance. During time sweep test of IEIK13 1.5% solution, DMEM was added into the chamber surrounding the measuring plates to soak IEIK13 1.5% solution at 0 time point and continuously data was recorded. The results are shown in FIG. 9B for IEIK13 1.5% solution.

[3] = with pH adjustment, PuraMatrix® 2.5%, IEIK13 1.5% solution

Substance | gelation kinetics by cation/anion type ([1]; 0.5% RADA16) | reversibility after perturbation ([1]; 0.5% RADA16 with CaCl2 within the optimal salt concentration range, vortexing and sonication, 48 hours at room temperature) | stiffness with added CaCl2 ([1]; 2.5% RADA16 vs 2.5% RADA16 with CaCl2) | effect of cations on stiffness ([1]; RADA16 mixed with 0.005-1 M NaCl, KCl, and CaCl2, same molar concentrations) | mechanical properties of mixed gel ([1]; RADA16 mixed with Ringer's Solution (pH 5.3)) | burst pressure compared among formulations (pulmonary bullae; 2.5% RADA16 mixed with 0.250 M CaCl2) | filling of collapsed bullae cavity, histological analysis (pulmonary bullae; 2.5% RADA16 with CaCl2) | storage modulus response on DMEM addition [2, 3] | mechanical properties of mixed gel ([1]; 1.5% IEIK13 mixed with 0.00585% indigo carmine) | storage modulus response on DMEM addition ([2]; without pH adjustment)
Arg-Ala-Asp-Ala-Arg-Ala-Asp-Ala-Arg-Ala-Asp-Ala-Arg-Ala-Asp-Ala [PuraMatrix®] | Chlorine showed the quickest gelation and sulfate showed the slowest gelation | remained reversible | noticeable increase in stiffness | Ca provided the best enhancement of stiffness | A stiffer gel with faster gelation kinetics that maintains reversibility | best burst pressure | entirely filled the pulmonary bullae cavity | immediate storage modulus increase | – | –
Ile-Glu-Ile-Lys-Ile-Glu-Ile-Lys-Ile-Glu-Ile-Lys-Ile [IEIK13] | – | – | – | – | – | – | – | immediate storage modulus increase | maintains stiffness, reversibility, and gelation kinetics | immediate storage modulus increase
